The text below walks through data of patent publication US7398161B2, “Sampling method and sampling device, and logD measuring method and logD measuring system” (Banyu Pharmaceutical Co., Ltd., priority 2004, dated 2008).

The conditions of data set [1]: J. Med. Chem. 2001, 44, 2490-2497; cited from earlier work.
Data set [2] can be described thus: physchem.
Data set [3] in a line: logD measurement by sampling of octanol/buffer two-layer sample with plug liquid, HPLC and mass spectrometer. Particulars: octanol/buffer solution.

Regarding `NC(=O)N1c2ccccc2C=Cc2ccccc21` [Carbamazepine], the “logD, Literature value” in data set [1] is 2.19. In data set [2], this compound showed a logD of 1.8.

For `C=CCc1ccccc1OCC(O)CNC(C)C` (stereo not drawn) [Alprenolol], the “logD, Literature value” in data set [1] is on record as 0.97. In addition, in data set [3], the logD amounted to 1.2.

Turning to `C[C@@H]1C[C@H]2[C@@H]3CCC4=CC(=O)C=C[C@]4(C)[C@@]3(F)[C@@H](O)C[C@]2(C)[C@@]1(O)C(=O)CO` [Dexamethason], the “logD, Literature value” in data set [1] is given as 1.83. Moreover, the “logD, Measured value” in data set [3] (average of three measurements (only one measurement for amiodarone)) turned out to be 1.9.

Take `C[C@]12CC[C@@H]3c4ccc(O)cc4CC[C@H]3[C@@H]1CC[C@@H]2O` [estradiol]: the logD in data set [2] came to 3.9.

In data set [2], `COCCc1ccc(OCC(O)CNC(C)C)cc1` (stereo not drawn) [Metoprolol] gave a logD of 0.3.

Consider `CC(C)(C)NCC(O)c1cc(O)cc(O)c1` (stereo not drawn) [Terbutaline], for which the “logD, Literature value” in data set [1] is −1.35. This compound also had a logD in data set [3] of -1.9.

In the case of `c1ccc(-c2ccc(C(c3ccccc3)n3ccnc3)cc2)cc1` (stereo not drawn) [bifonazole], the “logD, Literature value” in data set [1] is given as 4.77. Further, the logD in data set [2] is 5.2.

In the case of `CN(C)CCCN1c2ccccc2Sc2ccc(Cl)cc21` [Chlorpromazine], the logD in data set [2] was determined as 3.5.

Turning to `COc1ccc([C@@H]2Sc3ccccc3N(CCN(C)C)C(=O)[C@@H]2OC(C)=O)cc1` [Diltiazem], the “logD, Literature value” in data set [1] was 2.06. Besides, the logD in data set [2] stood at 2.3.
